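A five-concentration, 48-hour dose response in 96-well plates underlies each endpoint, interpolated linearly between surrounding concentrations. GI50 marks 50% less growth. TGI: concentration producing complete growth inhibition.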
Key:
Test in all cases: NCI anticancer screen, dose series, 48 h
[1] = system: SF-295 CNS
[2] = system: SNB-19 CNS
[3] = system: K-562 leukemia
[4] = system: U251 CNS
[5] = system: CCRF-CEM leukemia
[6] = system: EKVX NSCLC
[7] = system: OVCAR-3 ovarian
[8] = system: SF-539 CNS
[9] = system: NCI-H23 lung
[10] = system: SW-620 colon

SMILES	GI50 [1] [nM]	TGI [1] [µM]	GI50 [2] [µM]	TGI [2] [µM]	GI50 [3] [nM]	TGI [3] [µM]	GI50 [4] [µM]	TGI [4] [µM]	GI50 [5] [µM]	TGI [5] [µM]	GI50 [6] [µM]	TGI [6] [µM]	GI50 [7] [nM]	TGI [7] [µM]	GI50 [8] [nM]	GI50 [9] [µM]	TGI [9] [µM]	GI50 [10] [µM]	TGI [10] [µM]	TGI [8] [µM]
COc1ccc(N(C)c2nc(Cl)nc3cnn(C)c23)cc1	< 10	> 100	< 0.0131	> 100	< 10	> 100	< 0.01	> 100	< 0.0146	> 100	< 0.0178	> 100	< 10	> 100	< 10	< 0.0251	> 100	< 0.01	> 100	
CN(C)CCOC(=O)Nc1nc2ccc(Sc3ccccc3)cc2[nH]1	2960	13.4	4.87	19.5	613	13.7	3.04	12.1	2.67	16.3	5.75	22.7	2660	9.06	2270	4.08	19.5	3.69	16.3	5.85
COc1cc2c(cc1C)NC(=O)/C2=C\c1c[nH]c2ccccc12	6280	38	16.4	41.7	8070	51.5	13.6	37.9	10.3	> 100	10.9	29.7	15400	62.9	14000	20.2	74.6	20.3	53.3	31.9
CCn1ccc(NS(=O)(=O)c2ccc(N)cc2)nc1=O	> 100000	> 100	> 100	> 100	> 100000	> 100	> 100	> 100	> 100	> 100	> 100	> 100	> 100000	> 100	> 100000	> 100	> 100	> 100	> 100	> 100
Nc1ccc(Sc2c3ccccc3nc3ccccc23)cc1		47.5		51.6		22.6		28		30.2		58.9		29.2			36.7		39	31
O=C(O[C@H]1CCN2C[C@H]3C[C@H](CN4C(=O)CCC[C@H]34)[C@@H]2C1)c1ccc(O)cc1		> 100		> 100		> 100		> 100		> 100		> 100		> 100			> 100		> 100	> 100
CC(C)C1N2CCCCC2[C@@H]2c3[nH]c4ccccc4c3CCN12 (stereo partly specified)		> 100		> 100		> 100		> 100		> 100		> 100		> 100			> 100		> 100	> 100
O=C(/C=C/OC(=O)c1cccc(Cl)c1)c1ccc(Cl)cc1	27300	> 80.1	> 56.5	> 100	34500	> 100	38.1	> 100	37.5	> 100	> 100	> 100	21700	> 74	23100	41.7	> 100	29.4	> 82	55.2
CCc1cccc(C)c1NC(=S)NC(=O)c1ccccc1C(=O)NC(=S)Nc1c(C)cccc1CC		> 100		> 100		> 100		> 100		> 100		> 100		80.9			> 100		> 100	> 100
CCOP1(=O)C=C(C)C(=C(Cl)Cl)C(C)=C1 (stereo unspecified)		39.8		50.3		16.3		50.9		68.6		38.3		64.2			38		30.7	66.7
O=C1NC(c2cccc(OCc3ccccc3)c2)Nc2ccccc21 (stereo unspecified)		4.12		> 100		35.6		4.25		3.99		> 54		0.558			> 100		> 100	0.708
COC1=CC(=O)c2nc(Cl)ccc2C1=O	1690	3.51	13.7	28	2980	> 100	1.66	3.03	2.23	> 100	1.78	3.53	1790	3.19	1620	1.59	3.33	1.79	3.3	3.03
O=C1C2C3C=CC(C2C(=O)N1CN1CCSCC1)C1C2C(=O)N(CN4CCSCC4)C(=O)C2C31 (stereo unspecified)		> 100		> 100		> 100		> 100	35.1	> 100		> 100		> 100			> 100	50.5	> 68.1	> 100
CN1CCN(Cc2ccc(NC(=O)c3cncc(C#Cc4cnc(N)c5cnccc45)c3)cc2C(F)(F)F)CC1	799	7.07	1.76	10.9	5	0.732	0.209	7.62	0.335	8.71	0.485	4.4	337	8.43	157	0.189	3.81	0.182	2.62	0.628
[O-]c1c2c(nn1-c1ccc(Cl)cc1)c1ccccc1c[n+]2Cc1ccccc1		> 100		> 100		> 100		> 100		> 100		> 100		> 100			> 100		> 100	> 100
C/C(=N\NC(=O)CC(=O)N(C(=O)c1ccc(Cl)cc1)c1ccc(C)cc1)c1ccccc1O		> 100		> 100		> 100		> 100		> 100		> 100		> 100			> 100		> 100	> 100
